US11078170B2 (Assembly Biosciences, Inc., priority 2017, dated 2021)

System: HBV viral production from HepAD38 cells
Test: Activity of test compounds on viral production from HepAD38 cells (viral load by qPCR of HBV core sequence in supernatant)
Format: cell-based
Settings: Hepatitis B virus, 120 h, 5 days incubation, HBV DNA in supernatant by qPCR, top concentration 10 μM, read-out: Viral Load EC50 Activity range
In short: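 HepAD38 cells, 50,000/well in tetracycline-free 2% FBS medium, treated 5 days at 37° C. with compound from 10 μM top concentration. HBV DNA in supernatant quantified by TaqMan qPCR of core sequence against DNA standards, relative to DMSO wells; CellTiter-Glo viability read in parallel. EC50/CC50 from four-parameter logistic fit.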

SMILES | EC50 [nM]
CN1[C@@H](C(=O)Nc2ccc(F)c(Cl)c2)C[C@@H](c2ncc(-c3ccn(C)n3)s2)NS1(=O)=O (stereo in doubt) [HBV-CSU-280-ISO-II, Cis-N-(3-Chloro-4-fluorophenyl)-2-methyl-5-(5-(1-methyl-1H-pyrazol-3-yl)thiazol-2-yl)-1,2,6-thiadiazinane-3-carboxamide 1,1-dioxide] | < 1000
CN1[C@@H](C(=O)Nc2ccc(F)c(Cl)c2)C[C@@H](c2ncc(-c3c[nH]cn3)s2)NS1(=O)=O (stereo in doubt) [HBV-CSU-333-ISO-II, 5-(5-(1H-imidazol-4-yl)thiazol-2-yl)-N-(3-chloro-4-fluorophenyl)-2-methyl-1,2,6-thiadiazinane-3-carboxamide 1,1-dioxide] | 1000 to 5000
[2H]C1[C@]([2H])(c2ncc(-c3cn(C([2H])([2H])[2H])cn3)s2)NS(=O)(=O)N(C([2H])([2H])[2H])[C@]1([2H])C(=O)Nc1ccc(F)c(Cl)c1 (stereo in doubt) [HBV-CSU-339-ISO-I, Cis-N-(3-Chloro-4-fluorophenyl)-2-(methyl-d3)-5-(5-(1-(methyl-d3)-1H-imidazol-4-yl)thiazol-2-yl)-1,2,6-thiadiazinane-3,4,5-d3-3-carboxamide 1,1-dioxide] | < 1000
[2H]C1[C@]([2H])(C(=O)Nc2ccc(F)c(Cl)c2)N(C([2H])([2H])[2H])S(=O)(=O)N[C@]1([2H])c1ncc(-c2cn(C([2H])([2H])[2H])cn2)s1 (stereo in doubt) [HBV-CSU-339-ISO-II, Cis-N-(3-Chloro-4-fluorophenyl)-2-(methyl-d3)-5-(5-(1-(methyl-d3)-1H-imidazol-4-yl)thiazol-2-yl)-1,2,6-thiadiazinane-3,4,5-d3-3-carboxamide 1,1-dioxide] | 1000 to 5000
[2H]C1[C@]([2H])(c2ncc(-c3cn(C)cn3)s2)NS(=O)(=O)N(C([2H])([2H])[2H])[C@]1([2H])C(=O)Nc1ccc(F)c(Cl)c1 (stereo in doubt) [HBV-CSU-340-ISO-I, Cis-N-(3-Chloro-4-fluorophenyl)-2-(methyl-d3)-5-(5-(1-methyl-1H-imidazol-4-yl)thiazol-2-yl)-1,2,6-thiadiazinane-3,4,5-d3-3-carboxamide 1,1-dioxide] | < 1000
[2H]C1[C@]([2H])(C(=O)Nc2ccc(F)c(Cl)c2)N(C([2H])([2H])[2H])S(=O)(=O)N[C@]1([2H])c1ncc(-c2cn(C)cn2)s1 (stereo in doubt) [HBV-CSU-340-ISO-II, Cis-N-(3-Chloro-4-fluorophenyl)-2-(methyl-d3)-5-(5-(1-methyl-1H-imidazol-4-yl)thiazol-2-yl)-1,2,6-thiadiazinane-3,4,5-d3-3-carboxamide 1,1-dioxide] | 1000 to 5000
[2H]C1[C@]([2H])(c2ncc(-c3cn(C([2H])([2H])[2H])cn3)s2)NS(=O)(=O)N(C)[C@]1([2H])C(=O)Nc1ccc(F)c(Cl)c1 (stereo in doubt) [HBV-CSU-341-ISO-I, Cis-N-(3-Chloro-4-fluorophenyl)-2-methyl-5-(5-(1-(methyl-d3)-1H-imidazol-4-yl)thiazol-2-yl)-1,2,6-thiadiazinane-3,4,5-d3-3-carboxamide 1,1-dioxide] | < 1000
[2H]C1[C@]([2H])(C(=O)Nc2ccc(F)c(Cl)c2)N(C)S(=O)(=O)N[C@]1([2H])c1ncc(-c2cn(C([2H])([2H])[2H])cn2)s1 (stereo in doubt) [HBV-CSU-341-ISO-II, Cis-N-(3-Chloro-4-fluorophenyl)-2-methyl-5-(5-(1-(methyl-d3)-1H-imidazol-4-yl)thiazol-2-yl)-1,2,6-thiadiazinane-3,4,5-d3-3-carboxamide 1,1-dioxide] | 1000 to 5000
[2H]C1[C@]([2H])(c2ccc(Br)s2)NS(=O)(=O)N(C)[C@]1([2H])C(=O)Nc1ccc(F)c(Cl)c1 (stereo in doubt) [HBV-CSU-371-ISO-I, Cis-5-(5-Bromothiophen-2-yl)-N-(3-chloro-4-fluorophenyl)-2-methyl-1,2,6-thiadiazinane-3,4,5-d3-3-carboxamide 1,1-dioxide] | < 1000
[2H]C1[C@]([2H])(C(=O)Nc2ccc(F)c(Cl)c2)N(C)S(=O)(=O)N[C@]1([2H])c1ccc(Br)s1 (stereo in doubt) [HBV-CSU-371-ISO-II, Cis-5-(5-Bromothiophen-2-yl)-N-(3-chloro-4-fluorophenyl)-2-methyl-1,2,6-thiadiazinane-3,4,5-d3-3-carboxamide 1,1-dioxide] | 1000 to 5000
[2H]C1[C@]([2H])(c2ccc(Br)s2)NS(=O)(=O)N(C([2H])([2H])[2H])[C@]1([2H])C(=O)Nc1ccc(F)c(Cl)c1 (stereo in doubt) [HBV-CSU-372-ISO-I, Cis-5-(5-bromothiophen-2-yl)-N-(3-chloro-4-fluorophenyl)-2-(methyl-d3)-1,2,6-thiadiazinane-3,4,5-d3-3-carboxamide 1,1-dioxide] | < 1000
[2H]C1[C@]([2H])(C(=O)Nc2ccc(F)c(Cl)c2)N(C([2H])([2H])[2H])S(=O)(=O)N[C@]1([2H])c1ccc(Br)s1 (stereo in doubt) [HBV-CSU-372-ISO-II, Cis-5-(5-bromothiophen-2-yl)-N-(3-chloro-4-fluorophenyl)-2-(methyl-d3)-1,2,6-thiadiazinane-3,4,5-d3-3-carboxamide 1,1-dioxide] | 1000 to 5000
[2H]C([2H])([2H])N1[C@@H](C(=O)Nc2ccc(F)c(Cl)c2)CC(c2ccc(-c3cn(C)cn3)s2)NS1(=O)=O (stereo in doubt) [HBV-CSU-373-ISO-II, Cis-N-(3-Chloro-4-fluorophenyl)-2-(methyl-d3)-5-(5-(1-methyl-1H-imidazol-4-yl)thiophen-2-yl)-1,2,6-thiadiazinane-3-carboxamide 1,1-dioxide] | < 1000
[2H]C([2H])([2H])N1[C@H](C(=O)Nc2ccc(F)c(Cl)c2)C[C@H](c2ccc(-c3cn(C([2H])([2H])[2H])cn3)s2)NS1(=O)=O (stereo in doubt) [HBV-CSU-374-ISO-I, Cis-N-(3-Chloro-4-fluorophenyl)-2-(methyl-d3)-5-(5-(1-(methyl-d3)-1H-imidazol-4-yl)thiophen-2-yl)-1,2,6-thiadiazinane-3-carboxamide 1,1-dioxide] | < 1000
[2H]C([2H])([2H])N1[C@@H](C(=O)Nc2ccc(F)c(Cl)c2)C[C@@H](c2ccc(-c3cn(C([2H])([2H])[2H])cn3)s2)NS1(=O)=O (stereo in doubt) [HBV-CSU-374-ISO-II, Cis-N-(3-Chloro-4-fluorophenyl)-2-(methyl-d3)-5-(5-(1-(methyl-d3)-1H-imidazol-4-yl)thiophen-2-yl)-1,2,6-thiadiazinane-3-carboxamide 1,1-dioxide] | < 1000
[2H]C1[C@]([2H])(c2ccc(-c3cn(C)cn3)s2)NS(=O)(=O)N(C)[C@]1([2H])C(=O)Nc1ccc(F)c(Cl)c1 (stereo in doubt) [HBV-CSU-375-ISO-I, Cis-N-(3-Chloro-4-fluorophenyl)-2-methyl-5-(5-(1-methyl-1H-imidazol-4-yl)thiophen-2-yl)-1,2,6-thiadiazinane-3,4,5-d3-3-carboxamide 1,1-dioxide] | < 1000
[2H]C1[C@]([2H])(C(=O)Nc2ccc(F)c(Cl)c2)N(C)S(=O)(=O)N[C@]1([2H])c1ccc(-c2cn(C)cn2)s1 (stereo in doubt) [HBV-CSU-375-ISO-II, Cis-N-(3-Chloro-4-fluorophenyl)-2-methyl-5-(5-(1-methyl-1H-imidazol-4-yl)thiophen-2-yl)-1,2,6-thiadiazinane-3,4,5-d3-3-carboxamide 1,1-dioxide] | 1000 to 5000
